Drawing on patent publication US20150291598A1 (NOVARTIS AG, priority 2012, published 2015), this text covers EC50 for 25 compounds.

The experiment concerns P. falciparum (NF54 or 3D7 strain). Briefly: Assay for P. falciparum proliferation in infected human blood cells (SYBR Green). The class given is cell-based, Plasmodium falciparum. The note with it: Plasmodium falciparum, Erythrocyte, 72 h, NF54 or 3D7 infected human erythrocytes, 72 hours; read-out: EC50 (nM), inhibitory efficacy in delaying P. falciparum proliferation in infected human blood cells. The gist of the method:
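Infected erythrocytes (NF54 or 3D7; final 2.5% hematocrit, 0.3% parasitemia) were incubated with compounds for 72 h at 37 °C in low oxygen (3% O2, 4% CO2, 93% N2).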

For the compound `CN(C(=O)c1cn2c(-c3ncccc3Cl)cnc2cn1)c1ccc(C#N)cc1` [Compound 354, 3-(3-chloropyridin-2-yl)-N-(4-cyanophenyl)-N-methylimidazo[1,2-a]pyrazine-6-carboxamide], the EC50 was found to be 6070 nM.

On to `CN(C(=O)c1cn2c(-c3ccc(C(F)(F)F)cc3)cnc2cn1)c1cncc(Cl)c1` [Compound 355, N-(5-chloropyridin-3-yl)-N-methyl-3-[4-(trifluoromethyl)phenyl]imidazo[1,2-a]pyrazine-6-carboxamide], for which the EC50 is 2120 nM.

Regarding `CN(C(=O)c1cn2c(-c3ccc(C(F)(F)F)cc3)cnc2cn1)c1nccs1` [Compound 356, N-methyl-N-(1,3-thiazol-2-yl)-3-[4-(trifluoromethyl)phenyl]imidazo[1,2-a]pyrazine-6-carboxamide], the EC50 worked out at 6680 nM.

Take `CN(C)c1ccc(-c2cnc3cnc(C(=O)N(C)c4ccc(Cl)nc4)cn23)cn1` [Compound 357, N-(6-chloropyridin-3-yl)-3-[6-(dimethylamino)pyridin-3-yl]-N-methylimidazo[1,2-a]pyrazine-6-carboxamide]: the EC50 came to 5490 nM.

Take `COc1ccnc(N(C)C(=O)c2cn3c(-c4ccc(C(F)(F)F)cc4)cnc3cn2)c1` [Compound 358, -(4-methoxypyridin-2-yl)-N-methyl-3-[4-(trifluoromethyl)phenyl]imidazo[1,2-a]pyrazine-6-carboxamide]: the EC50 was 1170 nM.

Regarding `COC[C@@H]1CCCN1c1ccc(N(C)C(=O)c2cn3c(-c4ccc(C(F)(F)F)cc4)cnc3cn2)cn1` [Compound 359, N-{6-[(2S)-2-(methoxymethyl)pyrrolidin-1-yl]pyridin-3-yl}-N-methyl-3-[4-(trifluoromethyl)phenyl]imidazo[1,2-a]pyrazine-6-carboxamide], the EC50 is more than 10000 nM.

As to `CN(C(=O)c1cn2c(-c3ccc4c(c3)OCCO4)cnc2cn1)c1ccc(Cl)nc1` [Compound 360, N-(6-chloropyridin-3-yl)-3-(2,3-dihydro-1,4-benzodioxin-6-yl)-N-methylimidazo[1,2-a]pyrazine-6-carboxamide], the EC50 is more than 4570 nM.

Turning to `CC(=O)Nc1ccc(-c2cnc3cnc(C(=O)N(C)c4ccc(C)cn4)cn23)cc1` [Compound 361, 3-(4-acetamidophenyl)-N-methyl-N-(5-methylpyridin-2-yl)imidazo[1,2-a]pyrazine-6-carboxamide], the EC50 worked out at 5150 nM.

On to `N#Cc1ccc(CNC(=O)c2cn3c(-c4ccc(C(F)(F)F)cc4)cnc3cn2)cc1` [Compound 362, -[(4-cyanophenyl)methyl]-3-[4-(trifluoromethyl)phenyl]imidazo[1,2-a]pyrazine-6-carboxamide], for which the EC50 worked out at 6470 nM.

In the case of `CC(C)S(=O)(=O)Nc1ccc(-c2cnc3cnc(C(=O)N(C)c4ccc(C#N)cc4)cn23)cc1` [Compound 363, N-(4-cyanophenyl)-N-methyl-3-[4-(propane-2-sulfonamido)phenyl]imidazo[1,2-a]pyrazine-6-carboxamide], the EC50 is 7020 nM.

As for `CC(C)c1nc(-c2cnc3cnc(C(=O)N(C)c4ccc(Cl)nc4)cn23)cs1` [Compound 364, N-(6-chloropyridin-3-yl)-N-methyl-3-[2-(propan-2-yl)-1,3-thiazol-4-yl]imidazo[1,2-a]pyrazine-6-carboxamide], the EC50 is 8240 nM.

For the compound `CN(C(=O)c1cn2c(-c3ccc(C(F)(F)F)cc3)cnc2cn1)c1ccc(-n2cncn2)nc1` [Compound 365, N-methyl-N-[6-(1H-1,2,4-triazol-1-yl)pyridin-3-yl]-3-[4-(trifluoromethyl)phenyl]imidazo[1,2-a]pyrazine-6-carboxamide], the EC50 was found to be 6140 nM.

Turning to `CN(C(=O)c1ccc(OC(F)(F)F)cc1)c1cn2c(-c3ccc(C(F)(F)F)cc3)cnc2cn1` [Compound 366, N-methyl-4-(trifluoromethoxy)-N-{3-[4-(trifluoromethyl)phenyl]imidazo[1,2-a]pyrazin-6-yl}benzamide], the EC50 was more than 6250 nM.

As for `Cc1nnc(-c2ccc(-c3cnc4cnc(C(=O)N(C)c5ccc(Cl)nc5)cn34)cn2)o1` [Compound 367, N-(6-chloropyridin-3-yl)-N-methyl-3-[6-(5-methyl-1,3,4-oxadiazol-2-yl)pyridin-3-yl]imidazo[1,2-a]pyrazine-6-carboxamide], the EC50 was more than 9280 nM.

Regarding `CCn1nccc1NC(=O)c1cn2c(-c3ccc(C(F)(F)F)cc3)cnc2cn1` [Compound 368, N-(1-ethyl-1H-pyrazol-5-yl)-3-[4-(trifluoromethyl)phenyl]imidazo[1,2-a]pyrazine-6-carboxamide], the EC50 stood at 7040 nM.

On to `CN(C(=O)c1cn2c(-c3ccc(C#N)cc3)cnc2cn1)c1ccc(C(F)(F)F)cc1` [Compound 369, 3-(4-cyanophenyl)-N-methyl-N-[4-(trifluoromethyl)phenyl]imidazo[1,2-a]pyrazine-6-carboxamide], for which the EC50 was found to be 1160 nM.

Regarding `CN(Cc1ccccc1)C(=O)c1cn2c(-c3ccc(C(F)(F)F)cc3)cnc2cn1` [Compound 370, N-benzyl-N-methyl-3-[4-(trifluoromethyl)phenyl]imidazo[1,2-a]pyrazine-6-carboxamide], the EC50 was 8200 nM.

Consider `NC(=O)c1ccc(NC(=O)c2cn3c(-c4ccc(C(F)(F)F)cc4)cnc3cn2)nc1` [Compound 371, 2-C-3-[4-(trifluoromethyl)phenyl]imidazo[1,2-a]pyrazine-6-pyridine-2,5-dicarboxamide], for which the EC50 is more than 10000 nM.

Regarding `CN(C(=O)c1cn2c(-c3ccc(OCCN)cc3)cnc2cn1)c1ccc(C#N)cc1` [Compound 372, 3-[4-(2-aminoethoxyl)phenyl]-N-(4-cyanophenyl)-N-methylimidazo[1,2-a]pyrazine-6-carboxamide], the EC50 is more than 10000 nM.

Regarding `CC(=O)Nc1ccc(-c2cnc3cnc(C(=O)N(C)c4ccc(C)cn4)cn23)cn1` [Compound 373, 3-(6-acetamidopyridin-3-yl)-N-methyl-N-(5-methylpyridin-2-yl)imidazo[1,2-a]pyrazine-6-carboxamide], the EC50 was more than 9880 nM.

Turning to `O=C(c1cn2c(-c3ccc(C(F)(F)F)cc3)cnc2cn1)N1CCOCC1` [Compound 374, 4-({3-[4-(trifluoromethyl)phenyl]imidazo[1,2-a]pyrazin-6-yl}carbonyl)morpholine], the EC50 is more than 9820 nM.

For the compound `CN(C(=O)c1cn2c(-c3ccc(C(F)(F)F)cc3)cnc2cn1)c1ccc(CN)cc1` [Compound 375, N-[4-(aminomethyl)phenyl]-N-methyl-3-[4-(trifluoromethyl)phenyl]imidazo[1,2-a]pyrazine-6-carboxamide], the EC50 was more than 6830 nM.

Regarding `Cc1nc2cnc(C(=O)Nc3ccc(C#N)cc3)cn2c1-c1ccc(C(F)(F)F)cc1` [Compound 376, N-(4-cyanophenyl)-2-methyl-3-[4-(trifluoromethyl)phenyl]imidazo[1,2-a]pyrazine-6-carboxamide], the EC50 was 9490 nM.

In the case of `CN(C(=O)c1cn2c(-c3ccc(C#N)cc3)cnc2cn1)c1ccc(C#N)cc1` [Compound 377, N,3-bis(4-cyanophenyl)-N-methylimidazo[1,2-a]pyrazine-6-carboxamide], the EC50 amounted to 8190 nM.

In the case of `Cc1cc(-c2cnc3cnc(C(=O)N(C)c4ccc(C#N)cc4)cn23)ccn1` [Compound 378, N-(4-cyanophenyl)-N-methyl-3-(2-methylpyridin-4-yl)imidazo[1,2-a]pyrazine-6-carboxamide], the EC50 was more than 7030 nM.
